Measurements reported in patent US8637510B2, “Morpholinothiazoles as alpha 7 positive allosteric modulators” (Janssen Pharmaceutica NV, priority 2009, dated 2014).

Columns and labels:
human alpha 7-wt nAChR = molecular target: T1, human alpha 7-wt nAChR (Homo sapiens, UniProt P36544); assay: Ca2+ flux imaging (FDSS) (Protocol B); type: cell-based; details: for Emax: efficacy of 100 μM choline defined as 100% in the absence of a PAM, read-out: a7-PAM-G_[33]_Eff_Curve_FI % Efficacy; for EC50: potentiation of 100 μM choline, compounds 0.01 μM to 30 μM, read-out: a7-PAM-G_[33]_pEC50 pEC50 (converted)
T1 construct: expressed in transfected cells
T1 sequence (P36544 23-502): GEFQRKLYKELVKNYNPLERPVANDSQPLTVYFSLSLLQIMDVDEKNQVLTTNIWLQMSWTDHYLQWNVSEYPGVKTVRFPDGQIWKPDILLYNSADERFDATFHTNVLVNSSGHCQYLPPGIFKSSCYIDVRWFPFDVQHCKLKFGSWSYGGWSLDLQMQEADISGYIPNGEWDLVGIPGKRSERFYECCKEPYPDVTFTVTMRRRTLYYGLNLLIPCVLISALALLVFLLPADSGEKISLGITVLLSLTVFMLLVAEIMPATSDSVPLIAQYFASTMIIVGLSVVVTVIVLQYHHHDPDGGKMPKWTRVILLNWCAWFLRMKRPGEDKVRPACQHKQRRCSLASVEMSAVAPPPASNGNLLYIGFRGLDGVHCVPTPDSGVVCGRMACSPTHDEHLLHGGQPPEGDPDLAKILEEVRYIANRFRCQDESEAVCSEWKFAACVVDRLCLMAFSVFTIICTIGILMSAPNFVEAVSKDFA
How it was run: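 PAM activity was measured as FDSS calcium fluorescence in α7-wt nAChR cells loaded with 2 μM Fluo-4AM, with compounds at 0.01–30 μM added alongside or 10 min ahead of sub-maximal 100 μM choline. Peak responses were normalised to choline-only efficacy, and EC50 was taken at half-maximal effect.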

Row | melting point [°C] | Emax (human alpha 7-wt nAChR) [%] | EC50 (human alpha 7-wt nAChR) [nM] | SMILES
1 | 201 | 509 | 5130 | Cc1cc(-c2sc(N3C[C@@H](C)O[C@@H](C)C3)nc2CNC(=O)c2ncoc2C)cc(C)n1 [Compound 161, N-[[2-[(2R,6S)-2,6-dimethyl-4-morpholinyl]-5-(2,6-dimethyl-4-pyridinyl)-4-thiazolyl]methyl]-5-methyl-4-oxazolecarboxamide]
2 | 176 | 142 |  | Cc1cc(-c2sc(N3C[C@@H](C)O[C@@H](C)C3)nc2CNC(=O)c2c(C)noc2C(F)(F)F)cc(C)n1 [Compound 163, N-[[2-[(2R,6S)-2,6-dimethyl-4-morpholinyl]-5-(2,6-dimethyl-4-pyridinyl)-4-thiazolyl]methyl]-3-methyl-5-(trifluoromethyl)-4-isoxazolecarboxamide]
3 | 200 |  | 166 | Cc1cc(-c2sc(N3C[C@@H](C)O[C@@H](C)C3)nc2CNC(=O)c2csc(C)c2C)cc(C)n1 [Compound 164, N-[[2-[(2R,6S)-2,6-dimethyl-4-morpholinyl]-5-(2,6-dimethyl-4-pyridinyl)-4-thiazolyl]methyl]-4,5-dimethyl-3-thiophenecarboxamide]
4 | 192 | 669 | 1620 | Cc1cc(-c2sc(N3C[C@@H](C)O[C@@H](C)C3)nc2CNC(=O)c2onc(C)c2C)cc(C)n1 [Compound 171, N-[[2-[(2R,6S)-2,6-dimethyl-4-morpholinyl]-5-(2,6-dimethyl-4-pyridinyl)-4-thiazolyl]methyl]-3,4-dimethyl-5-isoxazolecarboxamide]
5 | 165 | 292 | 2630 | Cc1cc(-c2sc(N3C[C@@H](C)O[C@@H](C)C3)nc2CNC(=O)c2nn(C)cc2C)cc(C)n1 [Compound 172, N-[[2-[(2R,6S)-2,6-dimethyl-4-morpholinyl]-5-(2,6-dimethyl-4-pyridinyl)-4-thiazolyl]methyl]-1,4-dimethyl-1H-pyrazole-3-carboxamide]
6 | 145 | 956 | 537 | Cc1cc(-c2sc(N3C[C@@H](C)O[C@@H](C)C3)nc2CNC(=O)c2nocc2C)cc(C)n1 [Compound 174, N-[[2-[(2R,6S)-2,6-dimethyl-4-morpholinyl]-5-(2,6-dimethyl-4-pyridinyl)-4-thiazolyl]methyl]-4-methyl-3-isoxazolecarboxamide]
7 | 179 |  | 1910 | Cc1cc(-c2sc(N3C[C@@H](C)O[C@@H](C)C3)nc2CNC(=O)c2ccon2)cc(C)n1 [Compound 180, N-[[2-[(2R,6S)-2,6-dimethyl-4-morpholinyl]-5-(2,6-dimethyl-4-pyridinyl)-4-thiazolyl]methyl]-3-isoxazolecarboxamide]
8 | 156 | 974 | 562 | Cc1cc(-c2sc(N3CCOC[C@@H]3C)nc2CNC(=O)c2ccc(F)cc2C)cc(C)n1 [Compound 184, N-[[5-(2,6-dimethyl-4-pyridinyl)-2-[(3S)-3-methyl-4-morpholinyl]-4-thiazolyl]methyl]-4-fluoro-2-methyl-benzamide]
9 | 138 | 994 | 5250 | Cc1cc(-c2sc(N3CCOC[C@@H]3C)nc2CNC(=O)CC2CC2)cc(C)n1 [Compound 187, N-[[5-(2,6-dimethyl-4-pyridinyl)-2-[(3S)-3-methyl-4-morpholinyl]-4-thiazolyl]methyl]-cyclopropaneacetamide]
10 | 151 |  | 1510 | Cc1cc(-c2sc(N3CCOC[C@@H]3C)nc2CNC(=O)CC(C)C)cc(C)n1 [Compound 189, N-[[5-(2,6-dimethyl-4-pyridinyl)-2-[(3S)-3-methyl-4-morpholinyl]-4-thiazolyl]methyl]-3-methyl-butanamide]
11 | 228 |  | 219 | Cc1cc(C(=O)NCc2nc(N3C[C@@H](C)O[C@@H](C)C3)sc2-c2ccnc(C(F)(F)F)c2)no1 [Compound 199, N-[[2-[(2R,6S)-2,6-dimethyl-4-morpholinyl]-5-[2-(trifluoromethyl)-4-pyridinyl]-4-thiazolyl]methyl]-5-methyl-3-isoxazolecarboxamide]

Continued, molecule first:

Row | SMILES | melting point [°C] | Emax (human alpha 7-wt nAChR) [%] | EC50 (human alpha 7-wt nAChR) [nM]
12 | O=C(NCc1nc(N2CCOCC2)sc1-c1ccncc1)C1CC1 [Compound 116, N-[[2-(4-morpholinyl)-5-(4-pyridinyl)-4-thiazolyl]methyl]-cyclopropanecarboxamide] | 189 | 259 | 
13 | Cc1ccc(-c2sc(N3C[C@@H](C)O[C@@H](C)C3)nc2CNC(=O)c2conc2C)cn1 [Compound 117, N-[[2-[(2R,6S)-2,6-dimethyl-4-morpholinyl]-5-(6-methyl-3-pyridinyl)-4-thiazolyl]methyl]-3-methyl-4-isoxazolecarboxamide] | 129 | 665 | 
14 | Cc1ccc(-c2sc(N3C[C@@H](C)O[C@@H](C)C3)nc2CNC(=O)CC2CC2)cn1 [Compound 119, N-[[2-[(2R,6S)-2,6-dimethyl-4-morpholinyl]-5-(6-methyl-3-pyridinyl)-4-thiazolyl]methyl]-cyclopropaneacetamide] | 139 | 302 | 4270
15 | Cc1ccc(-c2sc(N3C[C@@H](C)O[C@@H](C)C3)nc2CNC(=O)C2CCC2)cn1 [Compound 120, N-[[2-[(2R,6S)-2,6-dimethyl-4-morpholinyl]-5-(6-methyl-3-pyridinyl)-4-thiazolyl]methyl]-cyclobutanecarboxamide] | 139 | 567 | 
16 | Cc1ccc(-c2sc(N3C[C@@H](C)O[C@@H](C)C3)nc2CNC(=O)c2ccccc2Cl)cn1 [Compound 121, 2-chloro-N-[[2-[(2R,6S)-2,6-dimethyl-4-morpholinyl]-5-(6-methyl-3-pyridinyl)-4-thiazolyl]methyl]-benzamide] | 152 | 356 | 2040
17 | Cc1ccc(-c2sc(N3C[C@@H](C)O[C@@H](C)C3)nc2CNC(=O)c2cccc(Cl)c2)cn1 [Compound 122, 3-chloro-N-[[2-[(2R,6S)-2,6-dimethyl-4-morpholinyl]-5-(6-methyl-3-pyridinyl)-4-thiazolyl]methyl]-benzamide] | 167 | 473 | 1000
18 | Cc1ccc(-c2sc(N3C[C@@H](C)O[C@@H](C)C3)nc2CNC(=O)c2ccc(Cl)cc2)cn1 [Compound 123, 4-chloro-N-[[2-[(2R,6S)-2,6-dimethyl-4-morpholinyl]-5-(6-methyl-3-pyridinyl)-4-thiazolyl]methyl]-benzamide] | 208 | 636 | 389
19 | Cc1ccc(-c2sc(N3C[C@@H](C)O[C@@H](C)C3)nc2CNC(=O)c2cccc(F)c2)cn1 [Compound 125, N-[[2-[(2R,6S)-2,6-dimethyl-4-morpholinyl]-5-(6-methyl-3-pyridinyl)-4-thiazolyl]methyl]-3-fluoro-benzamide] | 147 | 428 | 851
20 | Cc1ccc(-c2sc(N3C[C@@H](C)O[C@@H](C)C3)nc2CNC(=O)c2ccc(F)cc2)cn1 [Compound 126, N-[[2-[(2R,6S)-2,6-dimethyl-4-morpholinyl]-5-(6-methyl-3-pyridinyl)-4-thiazolyl]methyl]-4-fluoro-benzamide] | 195 | 655 | 1660
21 | Cc1cc(-c2sc(N3C[C@@H](C)O[C@@H](C)C3)nc2CNC(=O)c2cc(C)oc2C)cc(C)n1 [Compound 146, N-[[2-[(2R,6S)-2,6-dimethyl-4-morpholinyl]-5-(2,6-dimethyl-4-pyridinyl)-4-thiazolyl]methyl]-2,5-dimethyl-3-furancarboxamide] | 131 |  | 977
22 | Cc1cc(-c2sc(N3C[C@@H](C)O[C@@H](C)C3)nc2CNC(=O)c2occc2C)cc(C)n1 [Compound 147, N-[[2-[(2R,6S)-2,6-dimethyl-4-morpholinyl]-5-(2,6-dimethyl-4-pyridinyl)-4-thiazolyl]methyl]-3-methyl-2-furancarboxamide] | 149 |  | 912
23 | Cc1cc(-c2sc(N3C[C@@H](C)O[C@@H](C)C3)nc2CNC(=O)c2ccno2)cc(C)n1 [Compound 149, N-[[2-[(2R,6S)-2,6-dimethyl-4-morpholinyl]-5-(2,6-dimethyl-4-pyridinyl)-4-thiazolyl]methyl]-5-isoxazolecarboxamide] | 164 |  | 1620
24 | Cc1cc(-c2sc(N3C[C@@H](C)O[C@@H](C)C3)nc2CNC(=O)c2sccc2C)cc(C)n1 [Compound 150, N-[[2-[(2R,6S)-2,6-dimethyl-4-morpholinyl]-5-(2,6-dimethyl-4-pyridinyl)-4-thiazolyl]methyl]-3-methyl-2-thiophenecarboxamide] | 184 | 894 | 427
25 | Cc1cc(-c2sc(N3C[C@@H](C)O[C@@H](C)C3)nc2CNC(=O)c2oc(C)nc2C)cc(C)n1 [Compound 159, N-[[2-[(2R,6S)-2,6-dimethyl-4-morpholinyl]-5-(2,6-dimethyl-4-pyridinyl)-4-thiazolyl]methyl]-2,4-dimethyl-5-oxazolecarboxamide] | 193 | 704 | 9770
26 | Cc1cc(-c2sc(N3C[C@@H](C)O[C@@H](C)C3)nc2CNC(=O)c2cnn(C)c2C)cc(C)n1 [Compound 160, N-[[2-[(2R,6S)-2,6-dimethyl-4-morpholinyl]-5-(2,6-dimethyl-4-pyridinyl)-4-thiazolyl]methyl]-1,5-dimethyl-1H-pyrazole-4-carboxamide] | 169 |  | 8130
